Results published in paper PMC7044277 (Nature Communications, 2020).
Several values for one entry are separate records, joined by “and”; a condition that tells them apart may be missing. Equal values may be shown once.

Assays:
[1] = target: DRD2 (D2 long receptor) wild-type (Homo sapiens, UniProt P14416); experiment: Radioligand competition binding, [3H]-N-methylspiperone, HEK293T membranes
[2] = target: DRD3 wild-type (Homo sapiens, UniProt P35462); experiment: Radioligand competition binding, [3H]-N-methylspiperone
Chain of DRD3 wild-type (P35462 whole entry): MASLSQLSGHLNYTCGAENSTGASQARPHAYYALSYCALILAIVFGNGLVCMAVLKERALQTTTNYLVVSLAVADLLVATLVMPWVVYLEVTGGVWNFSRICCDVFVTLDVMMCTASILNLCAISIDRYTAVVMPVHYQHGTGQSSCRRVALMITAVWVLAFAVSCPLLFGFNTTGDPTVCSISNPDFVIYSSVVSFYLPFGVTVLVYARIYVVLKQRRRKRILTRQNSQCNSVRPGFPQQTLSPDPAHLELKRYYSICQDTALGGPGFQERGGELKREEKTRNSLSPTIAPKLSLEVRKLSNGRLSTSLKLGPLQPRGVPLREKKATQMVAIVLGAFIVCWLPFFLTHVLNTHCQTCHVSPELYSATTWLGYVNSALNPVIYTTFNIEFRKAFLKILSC

[3] = target: T1, DRD4 (D4.4 variant) wild-type (Homo sapiens, UniProt P21917); experiment: as above; conditions: DRD4; [3H]-methylspiperone (0.8-1.0 nM); read-out: Ki
T1 sequence (P21917 1-419): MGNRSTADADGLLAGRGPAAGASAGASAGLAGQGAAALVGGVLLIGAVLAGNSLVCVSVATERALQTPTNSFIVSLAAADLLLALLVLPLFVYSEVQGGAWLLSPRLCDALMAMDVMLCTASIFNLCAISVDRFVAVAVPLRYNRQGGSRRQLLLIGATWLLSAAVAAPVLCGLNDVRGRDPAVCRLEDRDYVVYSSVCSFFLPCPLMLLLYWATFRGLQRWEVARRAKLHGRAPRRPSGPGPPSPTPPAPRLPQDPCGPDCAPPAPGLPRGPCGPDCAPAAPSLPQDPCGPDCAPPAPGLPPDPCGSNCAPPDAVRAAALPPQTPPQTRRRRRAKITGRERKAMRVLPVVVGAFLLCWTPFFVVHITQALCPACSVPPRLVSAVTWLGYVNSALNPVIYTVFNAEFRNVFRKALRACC

[4] = target: T2, DRD2 (D2 long receptor) (Homo sapiens, UniProt P14416); experiment: Gαi/o-mediated cAMP inhibition (GloSensor split-luciferase cAMP reporter), HEK293T; type: cell-based; conditions: for Response, Fig_S11b dose-response: individual replicates;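 on all read-outs here: compounds applied 15 min at room temperature, then luciferin plus 400 nM isoproterenol to raise cAMP through endogenous β2-adrenergic receptors, luminescence read 15 min later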
T2 sequence (P14416 whole entry): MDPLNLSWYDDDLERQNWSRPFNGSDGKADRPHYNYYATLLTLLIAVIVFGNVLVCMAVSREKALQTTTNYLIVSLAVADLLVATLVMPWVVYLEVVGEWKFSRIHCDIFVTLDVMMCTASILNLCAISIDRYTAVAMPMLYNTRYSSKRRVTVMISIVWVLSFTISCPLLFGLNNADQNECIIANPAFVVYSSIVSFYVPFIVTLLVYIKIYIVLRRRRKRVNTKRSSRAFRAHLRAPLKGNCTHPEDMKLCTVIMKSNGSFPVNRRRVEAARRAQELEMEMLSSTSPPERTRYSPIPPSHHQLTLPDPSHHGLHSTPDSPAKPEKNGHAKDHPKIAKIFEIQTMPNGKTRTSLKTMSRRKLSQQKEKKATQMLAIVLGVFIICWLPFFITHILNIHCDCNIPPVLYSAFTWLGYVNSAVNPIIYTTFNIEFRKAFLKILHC

[5] = target: T3, DRD4 (D4.4 variant) (Homo sapiens, UniProt P21917); experiment: Gαi/o-mediated cAMP inhibition (GloSensor); type: cell-based; conditions: DRD4; agonist, cAMP inhibition; read-out: EC50 ± SEM
T3 sequence (P21917 1-419): T1 sequence (P21917 1-419)

[6] = target: T2, DRD2 (D2 long receptor); experiment: β-arrestin2 recruitment (Tango), HTLA cells; type: cell-based; conditions: for Response, Fig_S11c dose-response: individual replicates
[7] = target: DRD3 (Homo sapiens, UniProt P35462); experiment: β-arrestin2 recruitment (Tango); type: cell-based; conditions: DRD3; Tango; read-out: EC50 ± SEM
Chain of DRD3 (P35462 whole entry): as the sequence (P35462 whole entry) above

[8] = target: T3, DRD4 (D4.4 variant); experiment: β-arrestin2 recruitment (Tango); type: cell-based; conditions: DRD4; Tango; read-out: EC50 ± SEM
[9] = target: DRD2 F1103.28A (Homo sapiens, UniProt P14416, F110A); type: binding; design: expressed in transfected cells; host or cells: HEK293T (ATCC CRL-11268); conditions: DRD2 F1103.28A
Chain of DRD2 F1103.28A (P14416 whole entry F110A): as the sequence (P14416 whole entry) above, with F110A counted along it

Chain of DRD2 (D2 long receptor) wild-type (P14416 whole entry): as the sequence (P14416 whole entry) above

SMILES: CCCCOc1cccc2cc(C(C)NCC3(O)CCCCC3)oc12.Cl (stereo not drawn) [O6LE6]
- Ki ([1]; DRD2, [3H]-methylspiperone (0.8-1.0 nM), read-out: Ki): 2.04 µM
- pKi ± SEM ([1]; DRD2 wild-type): 5.69±0.06
- Ki ([2]; DRD3, [3H]-methylspiperone (0.8-1.0 nM), read-out: Ki): 0.85 µM
- pKi ± SEM ([2]; DRD3 wild-type): 6.07±0.01
- Ki [3]: > 10 µM
- EC50 ([4]; DRD2, agonist, Gαi/o-mediated cAMP inhibition, read-out: EC50 ± SEM): 0.0464 ± 0.0155 µM
- Emax relative to quinpirole response ([4]; DRD2, cAMP inhibition): 96.65%
- Response, Fig_S11b dose-response ([4]; Log[Drug] -5): 81.0159 and 81.9991 and 95.2013 and 90.5911 and 100.378 and 91.8314 and 90.3639 and 94.9855 and 86.3213
- Response, Fig_S11b dose-response ([4]; Log[Drug] -5.52): 88.5768 and 95.2247 and 77.4579 and 98.4012 and 97.1899 and 97.626 and 96.6191 and 98.263 and 92.5248
- Response, Fig_S11b dose-response ([4]; Log[Drug] -6): 91.3624 and 86.7743 and 72.7996 and 95.3198 and 99.2054 and 99.6124 and 91.2428 and 94.603 and 88.8234
- Response, Fig_S11b dose-response ([4]; Log[Drug] -6.52): 80.2434 and 83.1695 and 87.1255 and 85.3392 and 85.0097 and 83.4496 and 88.4512 and 85.5769 and 83.1472
- Response, Fig_S11b dose-response ([4]; Log[Drug] -7): 58.0056 and 50.7491 and 42.2987 and 73.1202 and 72.0543 and 69.6996 and 76.9851 and 77.9363 and 79.6216
- Response, Fig_S11b dose-response ([4]; Log[Drug] -7.52): 45.2247 and 26.7088 and 25.0468 and 53.9826 and 53.3236 and 57.1802 and 56.5964 and 48.0046 and 46.7638
- Response, Fig_S11b dose-response ([4]; Log[Drug] -8): 27.6217 and 13.9045 and 1.873 and 27.4516 and 30.7752 and 36.8798 and 38.172 and 42.1216 and 42.4628
- Response, Fig_S11b dose-response ([4]; Log[Drug] -8.52): 12.8745 and -2.8324 and -17.6966 and 25 and 13.7985 and 29.6899 and 21.5778 and 11.2386 and 28.598
- Response, Fig_S11b dose-response ([4]; Log[Drug] -9): 19.5459 and 15.9176 and 4.8221 and 21.5698 and 25.5426 and 29.7481 and 11.342 and 13.0583 and 27.4194
- Response, Fig_S11b dose-response ([4]; Log[Drug] -11): 6.507 and 4.611
- Response, Fig_S11b dose-response ([4]; Log[Drug] -11.52): 28.839 and 31.7182 and 13.2022 and 1.376 and -1.3857 and 16.4244 and 10.2357 and 2.895 and 29.146
- Response, Fig_S11b dose-response ([4]; Log[Drug] -12): 23.5955 and 3.886 and -4.2135 and -2.9264 and -5.2713 and 2.829 and 6.638 and 20.6162
- EC50 [5]: > 10 µM
- Emax relative to quinpirole response ([6]; DRD2, Tango): 83.11%
- EC50 ([6]; DRD2, β-arrestin2 recruitment (Tango), read-out: EC50 ± SEM): 0.557 ± 0.129 µM
- response, Fig_S11c dose-response source data ([6]; Fig_S11c, Log[Drug] -5, replicate values): 102.612 and 76.914 and 118.815 and 128.686 and 107.344 and 93.7459 and 91.4018 and 94.1354
- Response, Fig_S11c dose-response ([6]; Log[Drug] -6.52): 31.2199 and 46.2944 and 28.6852
- Response, Fig_S11c dose-response ([6]; Log[Drug] -7): 11.3874 and 10.0089 and 10.6537 and 8.17 and 16.7384 and 23.3506 and 16.3825 and 16.4206 and 21.2486
- Response, Fig_S11c dose-response ([6]; Log[Drug] -7.52): 2.983 and 1.764 and 4.002 and -3.309 and -7.696 and -0.6325 and 11.3698 and 6.994 and 12.6997
- Response, Fig_S11c dose-response ([6]; Log[Drug] -8): 3.216 and 0.7671 and -0.1186 and 4.58 and -7.813 and 8.0383 and 4.755 and 0.516 and 2.286
- Response, Fig_S11c dose-response ([6]; Log[Drug] -8.52): 2.679 and 1.071 and -1.473 and 0.4627 and -3.045 and 4.511 and 0.1556 and -1.011
- Response, Fig_S11c dose-response ([6]; Log[Drug] -9): 0.7411 and 0.1816 and 1.971 and -2.53 and -2.659 and 6.978 and 2.24 and -0.7813 and 0.4791
- Response, Fig_S11c dose-response ([6]; Log[Drug] -9.52): 1.675 and 0.3261 and 1.23 and 1.988 and 0.5154 and 6.132 and 2.922 and -0.3739 and -1.362
- Response, Fig_S11c dose-response ([6]; Log[Drug] -10): 0.7745 and 3.454 and 0.4706 and -6.955 and -3.6985 and -1.1362 and 1.072 and 0.3907 and -1.333
- Response, Fig_S11c dose-response ([6]; Log[Drug] -10.52): 0.1927 and 0.4854 and 0.3409 and -1.124 and 8.703 and 5.11 and 0.478 and 0.806 and 3.44
- Response, Fig_S11c dose-response ([6]; Log[Drug] -11): 0.4891 and -0.1075 and 0.05188 and -6.3018 and 5.0836 and -3.93 and -2.3709 and 4.648 and -1.497
- Response, Fig_S11c dose-response ([6]; Log[Drug] -11.52): 2.264 and 2.713 and 0.6374 and -3.324 and 3.804 and -6.217 and 0.5754 and 2.325 and 0.9369
- Response, Fig_S11c dose-response ([6]; Log[Drug] -12): 0.04817 and -0.3928 and 5.406 and 4.214 and -4.302 and -2.66 and 3.553 and -0.8933
- EC50 [7]: > 10 µM
- EC50 [8]: > 10 µM
- pKi ± SEM [9]: 6.53±0.31
- Ki ([9]; read-out: Ki): 0.3 µM
